The source of these data is patent publication US11370774B2, “Substituted benzofuran, benzopyrrole, benzothiophene, and structurally related complement inhibitors” (BioCryst Pharmaceuticals, Inc., priority 2018, dated 2022).

In general, IC50 refers to the point on the concentration scale where inhibition reaches its midpoint.

The target of the test is Factor D (Homo sapiens (Human), UniProt P00746). Put plainly: Factor D esterolytic assay (Z-Lys-SBzl substrate, DTNB, 405 nm). The settings on record: Z-Lys-SBzl 1.29 mM, pH 7.5, 10% DMSO, tested a minimum of three times, read-out: Measured Ki (IC50) Value for Compounds: IC50. It counts as biochemical. The protocol: The IC50 value of a compound (i.e., the concentration of the compound that inhibits 50% of the enzymatic activity) was calculated according to the procedure reported in U.S. Pat. No. 6,653,340 B1, e.g., column 74 (incorporated by reference).
Chain of Factor D (P00746 26-253): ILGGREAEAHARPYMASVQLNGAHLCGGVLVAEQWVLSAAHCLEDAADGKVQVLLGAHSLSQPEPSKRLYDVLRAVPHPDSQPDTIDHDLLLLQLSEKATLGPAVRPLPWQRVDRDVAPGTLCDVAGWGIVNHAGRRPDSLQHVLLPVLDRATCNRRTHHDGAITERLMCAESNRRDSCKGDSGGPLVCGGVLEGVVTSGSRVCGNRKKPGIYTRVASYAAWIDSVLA
Specifically, the compounds were dissolved in a stock solution of DMSO at 10.0 or 100 mM. A portion of this stock solution was added to assay buffer in a final volume of 50 μL. Controls included buffer alone and enzyme solutions to which DMSO was added. Substrate was added to the reaction wells immediately or after incubation at room temperature. The reaction rates were measured spectrophotometrically by the generation of product at 405 nm for 600 sec. Background absorbance at 690 nm was measured and subtracted from the absorbance at 405 nm for each well.
The reaction rate for enzyme alone was compared to the rate of enzyme in the presence of inhibitor and the percent inhibition was calculated as shown below: Percent Inhibition=[Rate without inhibitor−Rate with inhibitor)/(Rate without inhibitor)]×100 Factor D Esterolytic Assay:
An established esterolytic assay for the measurement of Factor D activity and inhibition of Factor D activity was used (Kam, C. M.; McRae, B. J.; Harper, J. W.; Niemann, M. A.; Volanakis, J. E.; Powers, J. C. Human complement proteins D, C2, and B Active site mapping with peptide thioester substrates. J Biol. Chem. 1987, 262, 3444-3451). For this assay Z-Lys-SBzl, 1.29 mM (Kim, S.; Narayana, S. V. L; Volanakis, J. E. Mutational analysis of the substrate binding site of human complement Factor D. Biochemistry. 1994, 33, 14393-14399.) was used as the substrate for Factor D ([…]). Hydrolysis of this compound by Factor D liberated a free sulfhydryl group which is then reacted with 5,5′-dithiobis(2nitrobenzoic acid) producing an intense yellow color (Habeeb, A. F. S. A. Reaction of protein sulfhydryl groups with Ellman's Reagent. Methods in Enzymol. 1976, 25, 457-464). The assays were performed in 96 well microtiter plates and rates of hydrolysis were monitored at 405 nm on a Biotek Synergy H1 plate reader. Hydrolysis rates were reported as change in mOD/min. The assay was conducted in 100 mM HEPES, 500 mM NaCl, pH 7.5 containing 10% DMSO in a final volume of 50 μL per well.
An IC50, a compound concentration which inhibits 50% of the enzymatic activity, was calculated. Compounds in the examples were tested a minimum of three times.
Regarding `NCc1cccc(-c2cc(NC(=O)[C@@H]3CCC[C@H]3C(=O)NCc3cccc(Cl)c3F)cc3ccoc23)c1` (relative stereo) [Compound 217e, (trans)-N1-(7-(3-(aminomethyl)phenyl)benzofuran-5-yl)-N2-(3-chloro-2-fluorobenzyl)cyclopentane-1,2-dicarboxamide], the IC50 is under 1 µM. The same measure for `NCc1cccc(-c2cc(OC[C@@H]3CCC[C@H]3C(=O)NCc3cccc(Cl)c3F)cc3ccoc23)c1` (relative stereo) [Compound 340e, (trans)-2-(((7-(3-(aminomethyl)phenyl)benzofuran-5-yl)oxy)methyl)-N-(3-chloro-2-fluorobenzyl)cyclopentanecarboxamide]: 1 to 10 µM; for `NCc1cccc(-c2cc(C(=O)N[C@@H]3CCC[C@H]3C(=O)NCc3cccc(Cl)c3F)cc3ccoc23)c1` (relative stereo) [Compound 376e, 7-(3-(aminomethyl)phenyl)-N-((trans)-2-((3-chloro-2-fluorobenzyl)carbamoyl)cyclopentyl)benzofuran-5-carboxamide]: under 1 µM. The same measure for `Cc1ccc(CC(=O)O)c(OCc2cc(-c3cccc(C(N)CF)c3)c3occc3c2)c1` (single isomer, unassigned; (+)) [Compound 269h, (+)-2-(2-((7-(3-(1-amino-2-fluoroethyl)phenyl)benzofuran-5-yl)methoxy)-4-methylphenyl)acetic acid]: under 1 µM. For the molecule `COCc1cc2cc(COc3ccccc3CC(=O)O)cc(-c3cccc(C(N)CF)c3)c2o1` (single isomer, unassigned; (+)) [Compound 278e, (+)-2-(2-((7-(3-(1-amino-2-fluoroethyl)phenyl)-2-(methoxymethyl)benzofuran-5-yl)methoxy)phenyl)acetic acid], the IC50 is under 1 µM. As for `NC(CF)c1cc(-c2cc(COc3ccccc3CC(=O)O)cc3ccoc23)ccn1` (single isomer, unassigned; (+)) [Compound 327d, (+)-2-(2-((7-(2-(1-amino-2-fluoroethyl)pyridin-4-yl)benzofuran-5-yl)methoxy)phenyl)acetic acid], the IC50 is under 1 µM. Regarding `NC(CF)c1cccc(-c2cc(COc3ccccc3CC(=O)O)cc3ccoc23)c1F` (single isomer, unassigned; (+)) [Compound 402f, (+)-2-(2-((7-(3-(1-amino-2-fluoroethyl)-2-fluorophenyl)benzofuran-5-yl)methoxy)phenyl)acetic acid], the IC50 was under 1 µM. In the case of `NCc1ccc(CC(=O)O)c(OCc2cc(-c3cccc(C(N)CF)c3)c3occc3c2)c1` (single isomer, unassigned; (+)) [Compound 410d, (+)-2-(2-((7-(3-(1-amino-2-fluoroethyl)phenyl)benzofuran-5-yl)methoxy)-4-(aminomethyl)phenyl)acetic acid], the IC50 is under 1 µM. Regarding `N#Cc1ccc(CC(=O)O)c(OCc2cc(-c3cccc(C(N)CF)c3)c3occc3c2)c1` (single isomer, unassigned; (+)) [Compound 412b, (+)-2-(2-((7-(3-(1-amino-2-fluoroethyl)phenyl)benzofuran-5-yl)methoxy)-4-cyanophenyl)acetic acid], the half-maximal inhibitory concentration (IC50) is under 1 µM. Regarding `CC(=O)Nc1ccc(CC(=O)O)c(OCc2cc(-c3cccc(C(N)CF)c3)c3occc3c2)c1` (single isomer, unassigned; (+)) [Compound 434c, (+)-2-(4-acetamido-2-((7-(3-(1-amino-2-fluoroethyl)phenyl)benzofuran-5-yl)methoxy)phenyl)acetic acid], the IC50 was under 1 µM. In the case of `NC(=O)c1ccc(CC(=O)O)c(OCc2cc(-c3cccc(C(N)CF)c3)c3occc3c2)c1` (single isomer, unassigned; (+)) [Compound 436c, (+)-2-(2-((7-(3-(1-amino-2-fluoroethyl)phenyl)benzofuran-5-yl)methoxy)-4-carbamoylphenyl)acetic acid], the IC50 is under 1 µM. The same measure for `COCc1cc2cc(COc3cc(C)ccc3CC(=O)O)cc(-c3cccc(C(N)CF)c3)c2o1` (single isomer, unassigned; (+)) [Compound 455c, (+)-2-(2-((7-(3-(1-amino-2-fluoroethyl)phenyl)-2-(methoxymethyl)benzofuran-5-yl)methoxy)-4-methylphenyl)acetic acid]: under 1 µM; for `NCc1cccc(-c2cc(COc3ccccc3CC(=O)O)cc3cc(C(N)c4ccccc4)oc23)c1` (single isomer, unassigned; (+)) [Compound 460d, (+)-2-(2-((2-(amino(phenyl)methyl)-7-(3-(aminomethyl)phenyl)benzofuran-5-yl)methoxy)phenyl)acetic acid]: under 1 µM. `NC(CF)c1cc(-c2cc(COc3ccccc3CC(=O)O)cc3ccoc23)ccn1` (single isomer, unassigned; (-)) [Compound 326g, (−)-2-(2-((7-(2-(1-amino-2-fluoroethyl)pyridin-4-yl)benzofuran-5-yl)methoxy)phenyl)acetic acid]: the IC50 lay within 1 to 10 µM.

`CC(N)c1cc2cc(COc3ccccc3CC(=O)O)cc(-c3cccc(CN)c3)c2o1` (single isomer, unassigned; (-)) [Compound 442d, (−)-2-(2-((2-(1-aminoethyl)-7-(3-(aminomethyl)phenyl)benzofuran-5-yl)methoxy)phenyl)acetic acid]: the concentration for half-maximal inhibition (IC50) is under 1 µM. For `NCc1cccc(-c2nc(C(=O)Nc3ccccc3CC(=O)O)c3cccn3n2)c1` [Compound 1h, 2-(2-(2-(3-(aminomethyl)phenyl)pyrrolo[2,1-f][1,2,4]triazine-4-carboxamido)phenyl)acetic acid], the IC50 is under 1 µM. For the molecule `COC(=O)Cc1ccccc1NC(=O)c1nc(-c2cccc(CN)c2)nc2c1CCC2` [Compound 2e, methyl 2-(2-(2-(3-(aminomethyl)phenyl)-6,7-dihydro-5H-cyclopenta[d]pyrimidine-4-carboxamido)phenyl)acetate], the half-inhibitory concentration (IC50) was over 10 µM.

Turning to `NCc1cccc(-c2nc3c(c(C(=O)Nc4ccccc4CC(=O)O)n2)CCC3)c1` [Compound 2f, 2-(2-(2-(3-(aminomethyl)phenyl)-6,7-dihydro-5H-cyclopenta[d]pyrimidine-4-carboxamido)phenyl)acetic acid], the IC50 was under 1 µM. For `NCc1cccc(-c2nc(C(=O)Nc3ccccc3CC(=O)O)nc3[nH]ccc23)c1` [Compound 3i, 2-(2-(4-(3-(aminomethyl)phenyl)-7H-pyrrolo[2,3-d]pyrimidine-2-carboxamido)phenyl)acetic acid] the value was under 1 µM; for `C[C@@H](N)c1cccc(-c2nc(C(=O)Nc3ccccc3CC(=O)O)c3cccn3n2)c1` [Compound 4e, (R)-2-(2-(2-(3-(1-aminoethyl)phenyl)pyrrolo[2,1-f][1,2,4]triazine-4-carboxamido)phenyl)acetic acid], under 1 µM. The same measure for `CCOC(=O)Cc1ccccc1NC(=O)c1nc(-c2cccc(CN)c2)c2cccn2n1` [Compound 5g, ethyl 2-(2-(4-(3-(aminomethyl)phenyl)pyrrolo[2,1-f][1,2,4]triazine-2-carboxamido)phenyl)acetate]: under 1 µM; for `NCc1cccc(-c2cc(C(=O)Nc3ccccc3CC(=O)O)c3nccn3c2)c1` [Compound 6e, 2-(2-(6-(3-(aminomethyl)phenyl)imidazo[1,2-a]pyridine-8-carboxamido)phenyl)acetic acid]: 1 to 10 µM.

On to `NCc1cccc(-c2cc(C(=O)Nc3ccccc3CC(=O)O)cc3[nH]ncc23)c1` [Compound 7d, 2-(2-(4-(3-(aminomethyl)phenyl)-1H-indazole-6-carboxamido)phenyl)acetic acid], for which the IC50 was under 1 µM. Turning to `NCc1cccc(-c2nc(COc3ccccc3CC(=O)O)nn3cccc23)c1` [Compound 8e, 2-(2-((4-(3-(aminomethyl)phenyl)pyrrolo[2,1-f][1,2,4]triazin-2-yl)methoxy)phenyl)acetic acid], the IC50 is under 1 µM. On to `NCc1cccc(-c2cc(C(=O)Nc3ccccc3CC(=O)O)cc3[nH]ccc23)c1` [Compound 9d, 2-(2-(4-(3-(aminomethyl)phenyl)-1H-indole-6-carboxamido)phenyl)acetic acid], for which the IC50 is under 1 µM. The same measure for `NCc1cccc(-c2cc(C(=O)Nc3ccccc3CC(=O)O)cc3c2cnn3CC2CC2)c1` [Compound 10d, 2-(2-(4-(3-(aminomethyl)phenyl)-1-(cyclopropylmethyl)-1H-indazole-6-carboxamido)phenyl)acetic acid]: under 1 µM.
